Results taken from ChEMBL document CHEMBL1136199, “2,6,8,9-tetrasubstituted purines as new CDK1 inhibitors” (Bioorg Med Chem Lett, 2003).
pIC50: −log10 of the molar value.

How the values were obtained:
MCF7 = assay: cells; assay type: functional, cell-based; conditions: Homo sapiens
Description: Cytotoxic property against MCF-7 cell line was determined

K562 = assay: cells; assay type: functional, cell-based; conditions: Homo sapiens
Description: Cytotoxic property against K562 cell line was determined

pIC50 (MCF7)	pIC50 (K562)	SMILES
4.27	4.04	CCC(CO)Nc1nc(NCc2ccccc2)c2nc(Cl)n(C(C)C)c2n1 (stereo not given)
4.22	4.10	CCC(CO)Nc1nc(NCc2ccccc2)c2nc(N)n(C(C)C)c2n1 (stereo not given)
4.03	4.24	CCC(CO)Nc1nc(NCc2ccccc2)c2nc(C)n(C(C)C)c2n1 (stereo not given)
	4.13	CCC(CO)Nc1nc(NCc2ccccc2)c2nc(O)n(C(C)C)c2n1 (stereo not given)
4.57	4.57	CCC(CO)Nc1nc(NCc2cccc(O)c2)c2nc(Cl)n(C(C)C)c2n1 (stereo not given)
5.96	5.85	CC(C)n1cnc2c(Nc3cccc(Cl)c3)nc(NC3CCC(N)CC3)nc21 (stereo not given)
4.35	4.68	CC(C)C(CO)Nc1nc(Nc2cccc(Cl)c2)c2nc(Cl)n(C(C)C)c2n1 (stereo not given)
5.10	5.46	Cc1nc2c(Nc3cccc(Cl)c3)nc(NC3CCC(N)CC3)nc2n1C(C)C (stereo not given)
4.30	4.70	CCCOc1nc2c(NCc3ccccc3)nc(NC(CC)CO)nc2n1C(C)C (stereo not given)
4.40	4.52	CCC(CO)Nc1nc(NCc2ccccc2)c2nc(NCCCO)n(C(C)C)c2n1 (stereo not given)
4.28	4.57	CCC(CO)Nc1nc(NCc2ccccc2)c2nc(Br)n(C(C)C)c2n1 (stereo not given)
3.93	3.93	CCC(CO)Nc1nc(NCc2ccccc2)c2nc([N+](=O)[O-])n(C(C)C)c2n1 (stereo not given)
4.26	3.81	CCC(CO)Nc1nc(NCc2ccccc2)c2nc(S)n(C(C)C)c2n1 (stereo not given)
